Measured values published in patent publication US10005774B2, “Syk inhibitors” (Gilead Sciences, Inc., priority 2013, dated 2018).
Read-outs that look alike come from different tables or passages of the source.

Molecular target: Syk (Homo sapiens, UniProt P43405)
Experiment: High Throughput Syk Biochemical Assay (KinEASE TR-FRET)
Conditions: 20 μM ATP, 1 μM biotinylated peptide, 0.015 nM Syk, 30 min at room temperature
Summary of the method: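 Compounds in DMSO dilution series were tested against Syk, which phosphorylates an XL665-tagged peptide. The phosphoproduct was bound by Eu-labelled phosphotyrosine antibody in a two-step endpoint format.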

[1] = table 'ALL NEW COMPOUNDS IN 2014', read-out: Syk IC50

Compound	IC50 [1]	IC50 (TABLE D, read-out: IC50)
C[C@@H](Oc1nc(-c2ccc(N3CC4CC(C3)O4)cc2)cc2ncn(C3CC3)c12)[C@H]1CNC(=O)C1 [(4R)-4-((1R)-1-((6-(4-(6-oxa-3-azabicyclo[3.1.1]heptan-3-yl)phenyl)-3-cyclopropyl-3H-imidazo[4,5-c]pyridin-4-yl)oxy)ethyl)pyrrolidin-2-one]	3.21 nM	–
COc1ccc(-c2cc3ncn(C(F)F)c3c(O[C@H](C)[C@H]3CNC(=O)C3)n2)cc1OC [(R)-4-((R)-1-(3-(difluoromethyl)-6-(3,4-dimethoxyphenyl)-3H-imidazo[4,5-c]pyridin-4-yloxy)ethyl)pyrrolidin-2-one]	–	1.1 nM
Cc1cc(-c2cc3ncn(C4CC4)c3c(O[C@H](C)[C@H]3CNC(=O)C3)n2)sn1 [(R)-4-((R)-1-((3-cyclopropyl-6-(3-methylisothiazol-5-yl)-3H-imidazo[4,5-c]pyridin-4-yl)oxy)ethyl)pyrrolidin-2-one]	2.27 nM	–
C[C@@H](Oc1nc(-c2cccc(S(C)(=O)=O)c2)cc2ncn(C)c12)[C@H]1CNC(=O)C1 [(R)-4-((R)-1-(3-methyl-6-(3-(methylsulfonyl)phenyl)-3H-imidazo[4,5-c]pyridin-4-yloxy)ethyl)pyrrolidin-2-one]	–	42.5 nM
C[C@@H](Oc1cc(-c2cccc3scnc23)cc2ncsc12)[C@H]1CNC(=O)C1 [(R)-4-((R)-1-([4,5′-bibenzo[d]thiazol]-7′-yloxy)ethyl)pyrrolidin-2-one]	–	105 nM
C[C@@H](Oc1nc(-c2ccc(N3CCn4c(nnc4C(F)(F)F)C3)cc2)cc2ncn(C3CC3)c12)[C@H]1CNC(=O)C1 [(R)-4-((R)-1-((3-cyclopropyl-6-(4-(3-(trifluoromethyl)-5,6-dihydro-[1,2,4]triazolo[4,3-a]pyrazin-7(8H)-yl)phenyl)-3H-imidazo[4,5-c]pyridin-4-yl)oxy)ethyl)pyrrolidin-2-one]	2.17 nM	–
C[C@@H](Oc1nc(-c2ccc(N3CCN(S(C)(=O)=O)CC3)c(F)c2)cc2ncn(C3CC3)c12)[C@H]1CNC(=O)C1 [(R)-4-((R)-1-((3-cyclopropyl-6-(3-fluoro-4-(4-(methylsulfonyl)piperazin-1-yl)phenyl)-3H-imidazo[4,5-c]pyridin-4-yl)oxy)ethyl)pyrrolidin-2-one]	2.02 nM	–
C[C@@H](Oc1nc(-c2ccc3c(c2)NC(=O)C3)cc2ncn(C3CC3)c12)[C@H]1CNC(=O)C1 [6-(3-cyclopropyl-4-((R)-1-((R)-5-oxopyrrolidin-3-yl)ethoxy)-3H-imidazo[4,5-c]pyridin-6-yl)indolin-2-one]	1.75 nM	–
C[C@@H](Oc1cc(-c2ccc(N3CCN(C4COC4)CC3)c(F)c2)cc2ncn(C3CC3)c12)[C@H]1CNC(=O)C1 [(R)-4-((R)-1-((1-cyclopropyl-5-(3-fluoro-4-(4-(oxetan-3-yl)piperazin-1-yl)phenyl)-1H-benzo[d]imidazol-7-yl)oxy)ethyl)pyrrolidin-2-one]	3.08 nM	–
C[C@@H](Oc1nc(-c2cnc(C(F)(F)F)s2)cc2ncn(C3CC3)c12)[C@H]1CNC(=O)C1 [(R)-4-((R)-1-((3-cyclopropyl-6-(2-(trifluoromethyl)thiazol-5-yl)-3H-imidazo[4,5-c]pyridin-4-yl)oxy)ethyl)pyrrolidin-2-one]	67.7 nM	–
C[C@@H](Oc1cc(-c2ccc(N3CCC(N4CCOCC4)CC3)cn2)cc2ncn(C3CC3)c12)[C@H]1CNC(=O)C1 [(R)-4-((R)-1-((1-cyclopropyl-5-(5-(4-morpholinopiperidin-1-yl)pyridin-2-yl)-1H-benzo[d]imidazol-7-yl)oxy)ethyl)pyrrolidin-2-one]	6.85 nM	–
C[C@@H](Oc1nc(-c2ccc3c(c2)NC(=O)OC3(C)C)cc2ncn(C)c12)[C@H]1CNC(=O)C1 [4,4-dimethyl-7-(3-methyl-4-((R)-1-((R)-5-oxopyrrolidin-3-yl)ethoxy)-3H-imidazo[4,5-c]pyridin-6-yl)-1H-benzo[d][1,3]oxazin-2(4H)-one]	0.935 nM	–
C[C@@H](Oc1nc(-c2ccc(N3CCN(S(C)(=O)=O)CC3)cc2)cc2ncn(C)c12)[C@H]1CNC(=O)C1 [(R)-4-((R)-1-(3-methyl-6-(4-(4-(methylsulfonyl)piperazin-1-yl)phenyl)-3H-imidazo[4,5-c]pyridin-4-yloxy)ethyl)pyrrolidin-2-one]	–	4.46 nM
Cc1ncc(-c2cc3ncn(C4CC4)c3c(O[C@H](C)[C@H]3CNC(=O)C3)n2)s1 [(R)-4-((R)-1-((3-cyclopropyl-6-(2-methylthiazol-5-yl)-3H-imidazo[4,5-c]pyridin-4-yl)oxy)ethyl)pyrrolidin-2-one]	10.2 nM	–
C[C@@H](Oc1nc(-c2ccc(N3CCN(C4COC4)CC3)cc2)cc2ncn(CCO)c12)[C@H]1CNC(=O)C1 [(R)-4-((R)-1-((3-(2-hydroxyethyl)-6-(4-(4-(oxetan-3-yl)piperazin-1-yl)phenyl)-3H-imidazo[4,5-c]pyridin-4-yl)oxy)ethyl)pyrrolidin-2-one]	135 nM	–
COc1ccc(-c2cc3nc[nH]c3c(O[C@H](C)[C@H]3CNC(=O)C3)n2)cc1OC [(R)-4-((R)-1-(6-(3,4-dimethoxyphenyl)-3H-imidazo[4,5-c]pyridin-4-yloxy)ethyl)pyrrolidin-2-one]	–	513 nM

The remaining lines, values ahead:

IC50 [1]	IC50 (TABLE D, read-out: IC50)	Compound
2.46 nM	–	CCOc1ccc(-c2cc3ncn(C4CC4)c3c(O[C@H](C)[C@H]3CNC(=O)C3)n2)cc1OC [(R)-4-((R)-1-((3-cyclopropyl-6-(4-ethoxy-3-methoxyphenyl)-3H-imidazo[4,5-c]pyridin-4-yl)oxy)ethyl)pyrrolidin-2-one]
11.9 nM	–	C[C@@H](Oc1nc(-c2ccncc2)cc2ncn(C3CC3)c12)[C@H]1CNC(=O)C1 [(R)-4-((R)-1-((3-cyclopropyl-6-(pyridin-4-yl)-3H-imidazo[4,5-c]pyridin-4-yl)oxy)ethyl)pyrrolidin-2-one]
0.454 nM	–	C[C@@H](Oc1cc(-c2cnn(C(C)(C)C)c2)cc2ncn(C3CC3)c12)[C@H]1CNC(=O)C1 [(R)-4-((R)-1-((5-(1-(tert-butyl)-1H-pyrazol-4-yl)-1-cyclopropyl-1H-benzo[d]imidazol-7-yl)oxy)ethyl)pyrrolidin-2-one]
9.11 nM	–	C[C@@H](Oc1cc(-c2ccc3c(c2)NCC3(C)C)cc2ncn(C3CC3)c12)[C@H]1CNC(=O)C1 [(R)-4-((R)-1-((1-cyclopropyl-5-(3,3-dimethylindolin-6-yl)-1H-benzo[d]imidazol-7-yl)oxy)ethyl)pyrrolidin-2-one]
–	2.52 nM	CC(C)n1ccc(-c2cc(O[C@H](C)[C@H]3CNC(=O)C3)c3scnc3c2)n1 (stereo in doubt) [(R)-4-((R)-1-((5-(1-isopropyl-1H-pyrazol-3-yl)benzo[d]thiazol-7-yl)oxy)ethyl)pyrrolidin-2-one]
5.01 nM	–	C[C@@H](Oc1cc(-c2ccn(C(C)(C)C)n2)cc2ncn(C3CC3)c12)[C@H]1CNC(=O)C1 [(R)-4-((R)-1-((5-(1-(tert-butyl)-1H-pyrazol-3-yl)-1-cyclopropyl-1H-benzo[d]imidazol-7-yl)oxy)ethyl)pyrrolidin-2-one]
10.6 nM	–	C[C@@H](Oc1cc(-c2ccn(C)n2)cc2ncn(C3CC3)c12)[C@H]1CNC(=O)C1 [(R)-4-((R)-1-((1-cyclopropyl-5-(1-methyl-1H-pyrazol-3-yl)-1H-benzo[d]imidazol-7-yl)oxy)ethyl)pyrrolidin-2-one]
14.4 nM	–	C[C@@H](Oc1nc(-c2ccc3oc(=O)n(C)c3c2)cc2ncn(C3CC3)c12)[C@H]1CNC(=O)C1
